{"source": "paper PMC12677653", "about": "“Inhibition of Tumor Lipogenesis and Growth by Peptide‐Based Targeting of SREBP Activation” (Advanced Science, 2025)", "key": {"[1]": {"design": "species or system ICR male mice", "conditions": "mouse, in vivo, iv, 10 mg/kg", "description": "Figure 2 LNPs with a 1:1 ratio of TAT to cRGD effectively accumulate in tumor tissues. a) Schematic illustration of LNP composition. b,c) Biodistribution analysis of differently sized LNPs in Huh7 tumor‐bearing BALB/c‐nude mice (n = 3). (b) In vivo fluorescence imaging at 8, 12, 24, and 48 h post‐intravenous injection (10 mg kg^−1). The arrows indicate the tumor site. (c) Ex vivo fluorescence imaging of tumors and major organs harvested 48 h post‐injection. d,e) Optimization of TAT/cRGD peptide coating ratios for tumor‐targeted LNPs (n = 3). (d) In vivo fluorescence imaging at 12, 24, and 48 h post‐injection. The arrows indicate the tumor site. (e) Ex vivo fluorescence imaging of tumors and organs at 48 h. f) Pharmacokinetic profile of LNP@Insig1/2 loop 1 peptide versus free peptide (Insig1/2 loop 1 peptide) following intravenous administration in ICR mice (n = 3, 10 mg kg^−1). Plasma concentration‐time curves were quantified, and pharmacokinetic parameters were calculated: AUC (0–t) (h·ng mL^−1) and AUC (0–∞) (h·ng mL^−1). Data are expressed as mean ± SD (n = 3). Statistical significance was determined by one‐way analysis of variance (ANOVA). * p < 0.05, ** p < 0.01, *** p < 0.001, **** p < 0.0001, ns, no significance. TEXT PRINTED IN THE PICTURE: (f) Peptide: Tlast (h): 0.500±0; T1/2 (h): 0.084±0.0143; AUC(0-t) (h*ng/mL): 326±71.8; AUC(0-∞)(h*ng/mL): 331±73.0; Cl(L/kg/min): 0.518±0.109 | (f) LNP@Insig1/2 loop1 peptide: Tlast (h): 5.00±1.155; T1/2 (h): 0.724±0.183; AUC(0-t) (h*ng/mL): 4928±1425; AUC(0-∞)(h*ng/mL): 4955±1422; Cl(L/kg/min): 0.0337±0.0191 DOUBTS OF THE COPYIST ABOUT THIS PICTURE: Peptide, T1/2 (h): 0.084±0.0143, small print, 8 or 6 and 3 or 5 not certain / Peptide, AUC(0-t): 326±71.8, small print, 6 or 8 not certain / Peptide, AUC(0-∞): 331±73.0, small print, 3 or 8 not certain / Peptide, Cl: 0.518±0.109, small print, 8 and 9 not certain / LNP@Insig1/2 loop1 peptide, T1/2 (h): 0.724±0.183, small print, 8 and 3 not certain / LNP@Insig1/2 loop1 peptide, AUC(0-t): 4928±1425, small print, 9, 8 and 5 not certain / LNP@Insig1/2 loop1 peptide, AUC(0-∞): 4955±1422, small print, 9 and 5 not certain / LNP@Insig1/2 loop1 peptide, Cl: 0.0337±0.0191, small print, 3 and 9 not certain\nThe pharmacokinetic assay of Insig1/2 loop 1 peptide and LNP@ Insig1/2 loop 1 peptide was performed in ICR male mice. The male mice were administered intravenously (iv) at a dose of 10 mg kg^−1. Then, blood samples were collected into tubes containing EDTA at 0.083, 0.25, 0.5, 1, 2, 4, 8, 24 h (iv) after dosing. After centrifugation at 6000 rpm for 10 min at 4 °C, the obtained plasma samples were stored at ‐20 °C. Subsequently, the plasma samples were analyzed by liquid (LC‐MS/MS) chromatography‐tandem mass spectrometry analysis."}, "[2]": {"system": "lipid accumulation in tumor tissues", "assay": "Oil Red O staining of tumor tissues", "format": "in vivo, BALB/c athymic nude mice", "conditions": "cryosections of Huh7 tumors, n = 4; peptide given as LNP 10 mg/kg iv; lenvatinib mesylate 2 mg/kg oral", "description": "Representative micrographs are shown (scale bar: 20 µm). b,c) Cryosections of mouse tumor tissues were prepared for histological analysis. (b) Lipid accumulation was assessed by Oil Red O staining. Representative micrographs are shown (scale bar: 20 µm). (c) Apoptotic cells were detected by TUNEL assay. Representative micrographs are shown (scale bar: 20 µm). d,e) Quantitative analysis of (d) apoptotic areas (TUNEL‐positive regions) and (e) lipid droplet counts (Oil Red O‐positive particles) was performed. Data represent the mean ± SD (n = 4). Statistical significance was determined by one‐way analysis of variance (ANOVA). ** p < 0.01, **** p < 0.0001, ns, no significance.\nCryosections 6–8 µm in thickness were air‐dried and fixed with formaldehyde for 5–10 min. Then, the slides were placed in absolute propylene glycol for 2–5 min and stained with 0.5% Oil red O dye. After staining, the slides were rinsed, counterstained with Mayer's hematoxylin for 1 min, and mounted in glycerin."}}}
{"sequence": "RKKRRQRRRLYPCIDSHLGEPHKFKRE [Insig1/2 loop 1 peptide]", "values": [{"measurement": "AUC(0-t)", "setting": "[1]", "result": "326 ± 71.8", "unit": "ng·h/mL"}, {"measurement": "AUC(0-∞)", "setting": "[1]", "result": "331 ± 73.0", "unit": "ng·h/mL"}, {"measurement": "Cl", "setting": "[1]", "result": "518 ± 109", "unit": "mL/min/kg"}, {"measurement": "Tlast", "setting": "[1]", "result": "0.500 ± 0", "unit": "h"}, {"measurement": "lipid accumulation in tumor tissues (Oil Red O)", "setting": "[2]", "result": "reduced lipid accumulation in tumor tissues"}]}
